The target of the test is TrkA (Homo sapiens (Human), UniProt P04629). Briefly: TrkA kinase HTRF enzyme inhibition assay. As to conditions: TrkA pre-incubated with 200 μM ATP. Type of test: biochemical. Put shortly: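 TrkA (2-10 nM) pre-activated 20 min with 200 μM ATP in HEPES pH 7.4/Mg/Mn buffer, compound added for 10 min, then biotinylated LCK-analog peptide (125 nM) for 1 h at ambient temperature. HTRF phosphotyrosine detection (665/620 ratio); duplicate half-log dilutions, IC50 from initial-rate inhibition via equation 1.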
In general terms: Time-resolved FRET reads energy transfer from a long-lived donor to a nearby acceptor.

32 molecules from patent US9777020B2, “Furo-3-carboxamide derivatives and methods of use” (AbbVie Inc., priority 2014, dated 2017) can be followed below.

Broadly, the IC50 is the concentration at which inhibition is half-maximal. A high value points to a need for much substance.

TrkA, sequence (P04629 33-796): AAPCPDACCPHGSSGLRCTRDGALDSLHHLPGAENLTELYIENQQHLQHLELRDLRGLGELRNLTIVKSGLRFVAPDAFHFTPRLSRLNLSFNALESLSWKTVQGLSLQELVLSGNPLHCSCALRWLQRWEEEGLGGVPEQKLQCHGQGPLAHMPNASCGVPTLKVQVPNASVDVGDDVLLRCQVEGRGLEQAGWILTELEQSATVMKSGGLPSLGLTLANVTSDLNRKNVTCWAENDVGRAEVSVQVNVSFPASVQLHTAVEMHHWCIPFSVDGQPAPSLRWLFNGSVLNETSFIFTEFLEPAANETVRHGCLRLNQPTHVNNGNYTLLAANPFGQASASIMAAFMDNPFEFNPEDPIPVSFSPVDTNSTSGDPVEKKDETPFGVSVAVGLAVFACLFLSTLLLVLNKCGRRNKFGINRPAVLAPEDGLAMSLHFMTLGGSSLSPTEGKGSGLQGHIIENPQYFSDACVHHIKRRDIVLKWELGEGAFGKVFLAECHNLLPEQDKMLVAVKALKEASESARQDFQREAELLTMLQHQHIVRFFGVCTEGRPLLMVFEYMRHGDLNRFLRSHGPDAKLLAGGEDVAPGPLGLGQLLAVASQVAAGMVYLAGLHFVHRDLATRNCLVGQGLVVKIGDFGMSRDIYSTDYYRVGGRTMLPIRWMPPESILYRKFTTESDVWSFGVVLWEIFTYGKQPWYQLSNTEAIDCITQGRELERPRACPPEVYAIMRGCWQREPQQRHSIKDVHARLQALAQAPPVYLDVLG

`COC[C@@H]1CN(c2ccc(NC(=O)c3coc4c3C(=O)NC(C)(C)C4)c(OCC(C)(C)O)n2)CCN1C(C)=O` [Example 142, N-{6-[(3S)-4-acetyl-3-(methoxymethyl)piperazin-1-yl]-2-(2-hydroxy-2-methylpropoxy)pyridin-3-yl}-6,6-dimethyl-4-oxo-4,5,6,7-tetrahydrofuro[3,2-c]pyridine-3-carboxamide] displayed an IC50 of 0.0018 µM.
For the molecule `CCOc1nc(CCO)ccc1NC(=O)c1coc2c1C(=O)NC(C)(C)C2` [Example 143, N-[2-ethoxy-6-(2-hydroxyethyl)pyridin-3-yl]-6,6-dimethyl-4-oxo-4,5,6,7-tetrahydrofuro[3,2-c]pyridine-3-carboxamide], the IC50 was found to be 0.0246 µM.
Then `CCOc1nc(CO)ccc1NC(=O)c1coc2c1C(=O)NC(C)(C)C2` [Example 144, N-[2-ethoxy-6-(hydroxymethyl)pyridin-3-yl]-6,6-dimethyl-4-oxo-4,5,6,7-tetrahydrofuro[3,2-c]pyridine-3-carboxamide], with 0.0492 µM; and `CCOc1nc(C(=O)O)ccc1NC(=O)c1coc2c1C(=O)N(CCOC)C(C)(C)C2` [Example 145, 6-ethoxy-5-({[5-(2-methoxyethyl)-6,6-dimethyl-4-oxo-4,5,6,7-tetrahydrofuro[3,2-c]pyridin-3-yl]carbonyl}amino)pyridine-2-carboxylic acid], with 0.0079 µM.
In the case of `Cn1ncc2cc(NC(=O)c3coc4c3C(=O)CC(C)(C)C4)ccc21` [Example 146, 6,6-dimethyl-N-(1-methyl-1H-indazol-5-yl)-4-oxo-4,5,6,7-tetrahydro-1-benzofuran-3-carboxamide], the midpoint of inhibition, the IC50, lay at 0.0341 µM.
`CC(=O)N1CCN(c2ccc(NC(=O)c3coc4c3C(=O)CC(C)(C)C4)cc2)CC1` [Example 148, N-[4-(4-acetylpiperazin-1-yl)phenyl]-6,6-dimethyl-4-oxo-4,5,6,7-tetrahydro-1-benzofuran-3-carboxamide] had an IC50 of 0.0324 µM.
With `CC1(C)CC(=O)c2c(C(=O)Nc3ccc(N4CCNCC4)nc3)coc2C1` [Example 149, 6,6-dimethyl-4-oxo-N-[6-(piperazin-1-yl)pyridin-3-yl]-4,5,6,7-tetrahydro-1-benzofuran-3-carboxamide], the IC50 worked out at 0.135 µM.
Then `Cn1cc2cc(NC(=O)c3coc4c3C(=O)CC3(CCC3)C4)ccc2n1` [Example 150, N-(2-methyl-2H-indazol-5-yl)-4-oxo-4,7-dihydro-5H-spiro[1-benzofuran-6,1′-cyclobutane]-3-carboxamide], with 0.0432 µM; and `CC1(C)CC(=O)c2c(C(=O)Nc3ccc(N4CCNCC4)cn3)coc2C1` [Example 151, 6,6-dimethyl-4-oxo-N-[5-(piperazin-1-yl)pyridin-2-yl]-4,5,6,7-tetrahydro-1-benzofuran-3-carboxamide], with 0.0634 µM.
Regarding `CC1(C)CC(=O)c2c(C(=O)Nc3ccc(N4CCN(S(C)(=O)=O)CC4)cc3)coc2C1` [Example 152, 6,6-dimethyl-N-{4-[4-(methylsulfonyl)piperazin-1-yl]phenyl}-4-oxo-4,5,6,7-tetrahydro-1-benzofuran-3-carboxamide], the IC50 came out at 0.0358 µM.
In the case of `CC1(C)CC(=O)c2c(C(=O)Nc3ccc4nn(CCO)cc4c3)coc2C1` [Example 153, N-[2-(2-hydroxyethyl)-2H-indazol-5-yl]-6,6-dimethyl-4-oxo-4,5,6,7-tetrahydro-1-benzofuran-3-carboxamide], the IC50 was found to be 0.0456 µM.
Turning to `CC1(C)CC(=O)c2c(C(=O)Nc3ccc4[nH]c(CO)nc4c3)coc2C1` [Example 154, N-[2-(hydroxymethyl)-1H-benzimidazol-5-yl]-6,6-dimethyl-4-oxo-4,5,6,7-tetrahydro-1-benzofuran-3-carboxamide], the IC50 came out at 0.074 µM.
`CC1(C)CC(=O)c2c(C(=O)Nc3ccc(N4CCN(S(C)(=O)=O)CC4)cn3)coc2C1` [Example 155, 6,6-dimethyl-N-{5-[4-(methylsulfonyl)piperazin-1-yl]pyridin-2-yl}-4-oxo-4,5,6,7-tetrahydro-1-benzofuran-3-carboxamide] returned an IC50 of 0.0548 µM.
In the case of `CC(=O)N1CCN(c2ccc(NC(=O)c3coc4c3C(=O)CC(C)(C)C4)nc2)CC1` [Example 156, N-[5-(4-acetylpiperazin-1-yl)pyridin-2-yl]-6,6-dimethyl-4-oxo-4,5,6,7-tetrahydro-1-benzofuran-3-carboxamide] it was 0.0467 µM.
Then `COc1cc(N2CCNCC2)ccc1NC(=O)c1coc2c1C(=O)CC(C)(C)C2` [Example 157, N-[2-methoxy-4-(piperazin-1-yl)phenyl]-6,6-dimethyl-4-oxo-4,5,6,7-tetrahydro-1-benzofuran-3-carboxamide], with 0.0064 µM.
Molecule `COc1cc(N2CCN(C(C)=O)CC2)ccc1NC(=O)c1coc2c1C(=O)CC(C)(C)C2` [Example 158, N-[4-(4-acetylpiperazin-1-yl)-2-methoxyphenyl]-6,6-dimethyl-4-oxo-4,5,6,7-tetrahydro-1-benzofuran-3-carboxamide] gave a concentration for half-maximal inhibition (IC50) of 0.0042 µM.
In turn, `Cn1cc2cc(NC(=O)c3coc4c3C(=O)CC3(CC3)C4)ccc2n1` [Example 159, N-(2-methyl-2H-indazol-5-yl)-4-oxo-4,7-dihydro-5H-spiro[1-benzofuran-6,1′-cyclopropane]-3-carboxamide] showed an IC50 of 0.0103 µM.
In turn, `Cn1cc2cc(NC(=O)c3coc4c3C(=O)CNC4)ccc2n1` [Example 160, N-(2-methyl-2H-indazol-5-yl)-4-oxo-4,5,6,7-tetrahydrofuro[2,3-c]pyridine-3-carboxamide] displayed an IC50 of 0.258 µM.
Then `Cn1cc2cc(NC(=O)c3coc4c3C(=O)CN(S(C)(=O)=O)C4)ccc2n1` [Example 161, N-(2-methyl-2H-indazol-5-yl)-6-(methylsulfonyl)-4-oxo-4,5,6,7-tetrahydrofuro[2,3-c]pyridine-3-carboxamide], with 0.872 µM; and `Cn1cc2cc(NC(=O)c3coc4c3C(=O)CC(C)(C(N)=O)C4)ccc2n1` (centres unmarked) [Example 162, 6-methyl-N^3-(2-methyl-2H-indazol-5-yl)-4-oxo-4,5,6,7-tetrahydro-1-benzofuran-3,6-dicarboxamide], with 0.058 µM.
Molecule `COC(=O)C1(C)CC(=O)c2c(C(=O)Nc3ccc4nn(C)cc4c3)coc2C1` (centres unmarked) [Example 163, methyl 6-methyl-3-[(2-methyl-2H-indazol-5-yl)carbamoyl]-4-oxo-4,5,6,7-tetrahydro-1-benzofuran-6-carboxylate] had a concentration for half-maximal inhibition (IC50) of 0.156 µM.
Regarding `Cn1cc2cc(NC(=O)c3coc4c3C(=O)CC(C)(CO)C4)ccc2n1` (centres unmarked) [Example 164, 6-(hydroxymethyl)-6-methyl-N-(2-methyl-2H-indazol-5-yl)-4-oxo-4,5,6,7-tetrahydro-1-benzofuran-3-carboxamide], the IC50 was 0.0219 µM.
On to `COc1cc(N2CCN(C(=O)OC(C)(C)C)CC2)ccc1NC(=O)c1coc2c1C(=O)CC(C)(CO)C2` (centres unmarked) [Example 165, tert-butyl 4-[4-({[6-(hydroxymethyl)-6-methyl-4-oxo-4,5,6,7-tetrahydro-1-benzofuran-3-yl]carbonyl}amino)-3-methoxyphenyl]piperazine-1-carboxylate], for which half-maximal inhibition (IC50) required 0.0133 µM.
Then `COCC1(C)CC(=O)c2c(C(=O)Nc3ccc(N4CCNCC4)cc3OC)coc2C1` (centres unmarked) [Example 166, 6-(methoxymethyl)-N-[2-methoxy-4-(piperazin-1-yl)phenyl]-6-methyl-4-oxo-4,5,6,7-tetrahydro-1-benzofuran-3-carboxamide], with 0.104 µM.
The molecule `Cn1cc2cc(NC(=O)c3coc4c3C(=O)C(C)(CO)CC4)ccc2n1` (centres unmarked) [Example 167, 5-(hydroxymethyl)-5-methyl-N-(2-methyl-2H-indazol-5-yl)-4-oxo-4,5,6,7-tetrahydro-1-benzofuran-3-carboxamide] displayed an IC50 of 0.0353 µM.
The molecule `COc1cc(N2CCN(C(C)=O)CC2)ccc1NC(=O)c1coc2c1C(=O)C(C)(CN)CC2` (centres unmarked) [Example 169, N-[4-(4-acetylpiperazin-1-yl)-2-methoxyphenyl]-5-(aminomethyl)-5-methyl-4-oxo-4,5,6,7-tetrahydro-1-benzofuran-3-carboxamide] showed an IC50 of 0.0596 µM.
In turn, `COc1cc(N2CCN(C(C)=O)CC2)ccc1NC(=O)c1coc2c1C(=O)C1(CCNCC1)OC2` [Example 170, N-[4-(4-acetylpiperazin-1-yl)-2-methoxyphenyl]-4-oxo-4,7-dihydrospiro[furo[2,3-c]pyran-5,4′-piperidine]-3-carboxamide] yielded an IC50 of 0.0565 µM.
`COc1nc(N2CCN(C(C)=O)CC2)ccc1NC(=O)c1coc2c1C(=O)C(C)(C)OC2` [Example 171, N-[6-(4-acetylpiperazin-1-yl)-2-methoxypyridin-3-yl]-5,5-dimethyl-4-oxo-4,7-dihydro-5H-furo[2,3-c]pyran-3-carboxamide] came in with an IC50 of 0.0029 µM.
Then `COc1cc(N2CCN(C(C)=O)CC2)ccc1NC(=O)c1coc2c1C(=O)C1(COC1)OC2` [Example 172, N-[4-(4-acetylpiperazin-1-yl)-2-methoxyphenyl]-4-oxo-4,7-dihydrospiro[furo[2,3-c]pyran-5,3′-oxetane]-3-carboxamide], with 0.06 µM.
`CCOc1nc(N2CCN(C(C)=O)CC2)ccc1NC(=O)c1coc2c1C(=O)N(C)C(C)(C)C2` [Example 173, N-[6-(4-acetylpiperazin-1-yl)-2-ethoxypyridin-3-yl]-5,6,6-trimethyl-4-oxo-4,5,6,7-tetrahydrofuro[3,2-c]pyridine-3-carboxamide] gave a half-inhibitory concentration (IC50) of 0.0035 µM.
As to `CCOc1nc(N2CCN(C(C)=O)CC2)ccc1NC(=O)c1coc2c1C(=O)N(CCO)C(C)(C)C2` [Example 174, N-[6-(4-acetylpiperazin-1-yl)-2-ethoxypyridin-3-yl]-5-(2-hydroxyethyl)-6,6-dimethyl-4-oxo-4,5,6,7-tetrahydrofuro[3,2-c]pyridine-3-carboxamide], the half-maximal inhibitory concentration (IC50) was 0.0052 µM.
Consider `CCOc1nc(N2CCN(C(C)=O)CC2)ccc1NC(=O)c1coc2c1C(=O)N(CCOC)C(C)(C)C2` [Example 175, N-[6-(4-acetylpiperazin-1-yl)-2-ethoxypyridin-3-yl]-5-(2-methoxyethyl)-6,6-dimethyl-4-oxo-4,5,6,7-tetrahydrofuro[3,2-c]pyridine-3-carboxamide], for which the IC50 was 0.0047 µM.
